The source of these data is ChEMBL document CHEMBL5661955, “ASAP - In vitro cytotoxicity” (2024).

“And” between values parts separate entries of the source, which are not always exact repeats. Equal entries are not always repeated.

By CC50 is commonly meant the concentration giving 50% cytotoxicity.

The nature of data set [1]: Functional assay to measure dose dependent changes in cell viability from drug treatment in Vero E6 miRFP670 cells (cotreated with P-gp inhibitor, CP100356) that are infected with Dengue virus type 2 New Guinea C. […] Cytotoxicity is reported via via analysis of DAPI count using high-content imager. The assay has been performed by KU Leuven. Format: toxicity, cell-based, Vero C1008. To be noted: chlorocebus sabaeus, with CP100356 (P-gp inhibitor, concentration not stated); p-gp concentration 500 nM.

Data set [2] in a line: Functional CPE-based assay to measure dose dependent changes in cell viability from drug treatment in Vero E6 miRFP670 cells. Cells are treated with antiviral candidates that have been serially diluted. Cytotoxicity is reported via analysis of MTS assays in uninfected cells. The assay has been performed by KU Leuven. Format: toxicity, Vero C1008. Particulars: chlorocebus sabaeus, Vero E6 miRFP670 cells.

Data set [3] in a line: Functional metabolic assay to measure dose dependent changes in cell viability from drug treatment in Vero E6/TMPRSS2 cells (cotreated with P-gp inhibitor, Elacridar). […] Cytotoxicity is reported via measuring absorbance and analysis of MTT/MTS assays in uninfected cells. The assay has been performed by Icahn School of Medicine at Mount Sinai. Format: toxicity, cell-based, VeroE6/TMPRSS2. To be noted: chlorocebus sabaeus, p-gp concentration 2 uM. On the technique in general: Formazan colour is commonly taken as a measure of viable cells.

The mark [4] stands for this setting: Vero E6/TMPRSS2 cells, with Elacridar (P-gp inhibitor, concentration not stated).

In the case of `NCc1cc(/C=C/C(=O)O)cc(NC(=O)c2cc(Cl)cc(NC(=O)OCc3ccccc3)c2)c1`, the CC50 was 15.7 µM in data set [1] and more than 50 µM in data set [2].
For the molecule `O=C(Nc1ccc2c(c1)CNC2)c1cccc2[nH]ncc12`, the 50% cytotoxic concentration (CC50) was 15.4 µM in data set [1], more than 50 µM in data set [3] (setting [4]) and 11.5 µM in data set [2]. For the same molecule, the CC10 in data set [3] (veroe6/tmprss2) is more than 50 µM.
Regarding `CC(C)OC(=O)Nc1cc(Cl)cc(C(=O)Nc2cccc(CN)c2)c1`, the CC50 in data set [1] was 4.99 µM; in data set [3] (setting [4]) it was more than 50 µM; in data set [2] it was 20.5 µM. The CC10 in data set [3] (veroe6/tmprss2) is less than 0.023 µM.
For the molecule `O=C(Nc1cc(Cl)cc(C(=O)Nc2ccc3c(c2)CNCC3)c1)OCc1ccccc1`, the values for the CC50 in data set [1] and in data set [2] were 3.27 µM and 2.85 µM, respectively.
Take `O=C(Nc1cc(Cl)cc(C(=O)Nc2cccc(C3CCNCC3)c2)c1)OCc1ccccc1`: the CC50 is 11.8 µM in data set [1], more than 10 µM in data set [3] (setting [4]), 13.5 µM in data set [3] (veroe6/tmprss2) and 5.29 µM in data set [2].
Take `O=C(O)COc1cccc(NC(=O)c2cc(Cl)cc(NC(=O)OCc3ccccc3)c2)c1`: the CC50 in data set [3] (setting [4]) and in data set [2] was more than 50 µM in each case. For the same molecule, in data set [3] (veroe6/tmprss2), the CC10 is more than 50 µM.
Regarding `O=C(NS(=O)(=O)C1CC1)c1cc(Cl)ccc1NS(=O)(=O)c1ccc(Oc2ccccc2Cl)cc1`, the CC50 in data set [1] and in data set [2] was more than 50 µM throughout.
For the molecule `C[C@@]1(c2cccc(CN)c2)C[C@H]1c1cc(Cl)cc(NC(=O)OCc2ccccc2)c1`, the CC50 in data set [1] worked out at 6.46 µM; in data set [2] it was 2.61 µM.
In the case of `O=C(Nc1ccc2c(c1)CNC2)c1cc(Cl)cc(-n2cccc2)c1`, the CC50 in data set [1] was more than 50 µM; in data set [3] (setting [4]), 46.4 µM; in data set [3] (veroe6/tmprss2), 34.8 µM; in data set [2], more than 50 µM. Further, the CC10 in data set [3] (veroe6/tmprss2) is 17.502 µM and 9.003 µM.
`CCc1nc2c(C(=O)Nc3ccc4c(c3)CNC4)cc(Br)cc2[nH]1`: the CC50 in data set [1] is more than 50 µM; in data set [3] (setting [4]), 33.5 µM; in data set [2] it was more than 50 µM. For the same molecule, the CC10 in data set [3] (veroe6/tmprss2) turned out to be 0.32 µM.
Regarding `NCc1cccc(NC(=O)c2cc(Cl)cc(C(N)=O)c2)c1`, the CC50 in data set [1] and in data set [2] was more than 50 µM in each case.
Take `O=C(Nc1cc(Cl)cc([C@H]2CN(Cc3ccccc3)C[C@@H]2c2cccc(-c3nn[nH]n3)c2)c1)OCc1ccccc1`: the CC50 in data set [1] was 12.3 µM; in data set [3] (setting [4]), more than 50 µM; in data set [2] it was 12.5 µM. Moreover, in data set [3] (veroe6/tmprss2), the CC10 worked out at 34.224 µM.
For `CNC(=O)[C@H](Nc1cc(CN)cc(C(=O)O)c1)c1cc(Cl)cc(NC(=O)OCc2ccccc2)c1`, the CC50 in data set [1] and in data set [2] was more than 50 µM throughout.
As to `O=C(Nc1ccc2c(c1)CNC2)c1cc(Cl)cc(C2CC2)c1`, the CC50 in data set [1] is 11.2 µM; in data set [3] (setting [4]) it was more than 50 µM; in data set [2], 10.5 µM. For the same molecule, the CC10 in data set [3] (veroe6/tmprss2) was 0.136 µM.
The corresponding values for `NCc1cccc(CCc2cc(Cl)cc(NC(=O)OCc3ccccc3)c2)c1` are 11.9 µM, 29.7 µM, 5.46 µM and 2.058 µM.
Take `C=CC[C@H](Nc1ccc(-c2nn[nH]n2)cc1)c1cc(Cl)cc(NC(=O)OCc2ccccc2)c1`: the CC50 is 10.7 µM in data set [1] and 46.2 µM in data set [2].
As for `NCc1cccc(NC(=O)[C@@H](NC(=O)OCc2ccccc2)c2ccc(-c3cc4cccnc4s3)cc2)c1`, the CC50 in data set [1] is more than 50 µM; in data set [2], 34.7 µM.
With `O=C(Nc1ccc(C2CNC2)cc1)c1cc(Cl)cc2[nH]ncc12`, the CC50 in data set [1] and in data set [2] was more than 50 µM each time.
On to `O=C(Nc1ccc2c(c1)CNCCC2)c1cc(Cl)cc2[nH]ncc12`, for which the CC50 in data set [1] was 2.18 µM; in data set [3] (setting [4]), more than 50 µM; in data set [2] it was 1.42 µM. The CC10 in data set [3] (veroe6/tmprss2) was less than 0.023 µM.
Turning to `O=C(O)c1cc(Cl)c(F)cc1S(=O)(=O)Nc1ccc(Oc2ccccc2Cl)cc1`, the CC50 in data set [1] and in data set [2] was more than 50 µM each time.
In the case of `CC(C)(C)NC(=O)[C@H](Nc1cccc(-c2nn[nH]n2)c1)c1cc(Cl)cc(NC(=O)OCc2ccccc2)c1`, the CC50 in data set [1] was 2.78 µM; in data set [3] (setting [4]), more than 50 µM; in data set [2], more than 50 µM. Moreover, the CC10 in data set [3] (veroe6/tmprss2) was more than 50 µM.
Consider `COc1cccc(-c2ccc([C@@H](NC(=O)OCc3ccccc3)C(=O)Nc3cccc(CN)c3)cc2)c1`, for which the half-maximal cytotoxic concentration (CC50) in data set [1] was 23.1 µM; in data set [2], 6.76 µM.
For the molecule `CC(C)Cc1nc2c(C(=O)Nc3ccc4c(c3)CNC4)cc(Br)cc2[nH]1`, the CC50 in data set [1] is 0.864 µM; in data set [3] (setting [4]), 20.9 µM; in data set [2], 0.623 µM. For the same molecule, the CC10 in data set [3] (veroe6/tmprss2) came to 0.569 µM.
With `Cn1ncc2c(C(=O)Nc3ccc4c(c3)CNC4)cc(Br)cc21`, the CC50 in data set [1] and in data set [2] was more than 50 µM in each case.
As to `O=C(Nc1ccc2c(c1)CNC2)c1cc(Br)cc2[nH]c(Cc3ccccc3)nc12`, the CC50 in data set [1] is 9.98 µM; in data set [3] (setting [4]), 16.5 µM; in data set [2], 11.6 µM. The CC10 in data set [3] (veroe6/tmprss2) worked out at 0.199 µM.
Consider `O=C(Nc1cc(Cl)cc([C@H]2C[C@@H]2c2cccc(C3CCNCC3)c2)c1)OCc1ccccc1`, for which the CC50 in data set [1] stood at 3.44 µM; in data set [2], 1.23 µM.
The like results for `NCc1cc(NC(=O)c2cc(Cl)cc(NC(=O)OCc3ccccc3)c2)cc([C@@H]2C[C@H]2C(=O)O)c1` were, in that order, 21.8 µM and 9.99 µM.
`CCNC(=O)Nc1cc(Cl)cc(C(=O)Nc2cccc(CN)c2)c1`: the CC50 in data set [1] and in data set [2] was more than 50 µM throughout.
Take `NCc1cccc(NC(=O)c2cc(Cl)cc(-n3cccc3)c2)c1`: the CC50 in data set [1] is more than 50 µM; in data set [3] (setting [4]), more than 50 µM; in data set [2], 25.7 µM. In addition, the CC10 in data set [3] (veroe6/tmprss2) is more than 50 µM.
`CCNC(=O)Nc1cc(Cl)cc(C(=O)Nc2ccc3c(c2)CNCCO3)c1`: the figures for the CC50 in data set [1] and in data set [2] were 35.3 µM and more than 50 µM, respectively.
With `O=C(Nc1cc(Cl)cc(-c2ccc3[nH]nc(C(=O)O)c3c2)c1)OCc1ccccc1`, the CC50 is 13.6 µM in data set [1] and more than 50 µM in data set [2].
Turning to `O=C(Nc1cc(Cl)cc(C(=O)NCc2ccc(-c3nnn[nH]3)cc2)c1)OCc1ccccc1`, the 50% cytotoxic concentration (CC50) was 3.21 µM in data set [1], more than 50 µM in data set [3] (setting [4]) and more than 50 µM in data set [2]. The CC10 in data set [3] (veroe6/tmprss2) is more than 50 µM.
For the molecule `CC(C)c1nc2c(C(=O)Nc3ccc4c(c3)CNC4)cc(Br)cc2[nH]1`, the CC50 in data set [1] was found to be 3.63 µM; in data set [3] (setting [4]), 19.2 µM; in data set [2], 2.65 µM. Also, the CC10 in data set [3] (veroe6/tmprss2) stood at 0.476 µM.
As for `NCc1cccc(NC(=O)c2cc(Cl)cc3c2cnn3CC2CC2)c1`, the CC50 in data set [1] was determined as 24.1 µM; in data set [2], 20.7 µM.
The like results for `NCc1cccc(NC(=O)[C@H](NC(=O)OCc2ccccc2)C2CCC(c3ccccc3)CC2)c1` (stereo partly specified) were, in that order, 11.5 µM and 4.58 µM.
As to `OCC#C[C@H](Nc1ccc2c(c1)CNC2)c1cc(Cl)cc2[nH]ncc12`, the CC50 in data set [1] and in data set [2] was more than 50 µM in each case.
Take `C=C1C[C@H](c2cc(Cl)cc(NC(=O)OCc3ccccc3)c2)[C@@H](c2cccc(-c3nn[nH]n3)c2)C1`: the CC50 turned out to be 7.56 µM in data set [1] and 5.72 µM in data set [2].
As to `CCCNC(=O)[C@H](Nc1cccc(-c2nn[nH]n2)c1)c1cc(Cl)cc(NC(=O)OCc2ccccc2)c1`, the CC50 in data set [1] and in data set [2] was more than 50 µM in each case.
Turning to `C=CC[C@H](Nc1cc(Cl)cc(NC(=O)OCc2ccccc2)c1)c1ccc(-c2nn[nH]n2)cc1`, the CC50 in data set [1] came out at 7.62 µM; in data set [2], 14.6 µM.
The like results for `N[C@H]1Cc2ccc(NC(=O)c3cc(Cl)cc(NC(=O)OCc4ccccc4)c3)cc2C1` were, in that order, 4.15 µM and 2.82 µM.
With `CC(C)Oc1ccc(S(=O)(=O)Nc2ccc(Cl)cc2C(=O)O)cc1`, in data set [2], the CC50 is more than 50 µM.
On to `N#C[C@H](Nc1ccc2c(c1)CNC2)c1cc(Cl)cc2[nH]ncc12`, for which the CC50 in data set [3] (setting [4]) and in data set [2] was more than 50 µM in each case. Further, the CC10 in data set [3] (veroe6/tmprss2) was more than 50 µM.
In the case of `NCc1cccc(NC(=O)[C@H](NC(=O)OCc2ccccc2)c2ccc(Br)c(Cl)c2)c1`, the CC50 in data set [1] was determined as 13.4 µM; in data set [2], 10 µM.
In the case of `COC(=O)c1cc(NC(=O)c2cc(Cl)cc(NC(=O)OCc3ccccc3)c2)cc(-c2nnn[nH]2)c1`, the CC50 was more than 50 µM in data set [3] (setting [4]) and 35.2 µM in data set [2]. The CC10 in data set [3] (veroe6/tmprss2) was more than 50 µM.
In the case of `Clc1ccc2[nH]cc(Cc3ccc(-c4nn[nH]n4)cc3)c2c1`, the CC50 in data set [1] is 19.3 µM; in data set [3] (setting [4]), more than 50 µM; in data set [2], more than 50 µM. Also, in data set [3] (veroe6/tmprss2), the CC10 is more than 50 µM.
The molecule `CC(C)(C)c1cc(Br)cc(C(=O)Nc2ccc3c(c2)CNC3)c1` had a CC50 in data set [2] of 5.77 µM.
Regarding `CCOc1cccc(-c2ccc(S(=O)(=O)Nc3ccc(Cl)cc3C(=O)O)cc2C)c1`, the CC50 in data set [1] is 21.9 µM; in data set [3] (setting [4]), more than 50 µM; in data set [2], 36.1 µM. Besides, in data set [3] (veroe6/tmprss2), the CC10 came out at 0.027 µM.
On to `CNC(=O)[C@H](Nc1cc(CN)cc(C(=O)O)c1)c1cc(Cl)cc(C2CC2)c1`, for which the CC50 in data set [1] and in data set [2] was more than 50 µM each time.
Turning to `O=C(Nc1ccc2c(c1)CNC2)c1cc(Br)cc2[nH]c(-c3ccccc3)nc12`, the values for the CC50 in data set [1], in data set [3] (setting [4]) and in data set [2] were 3.3 µM, 14.3 µM and 10.7 µM, respectively. Also, the CC10 in data set [3] (veroe6/tmprss2) was 0.098 µM.
